Measured values taken from ChEMBL document CHEMBL1145527, “Design, synthesis, and antiproliferative and CDK2-cyclin a inhibitory activity of novel flavopiridol analogues” (Bioorg Med Chem, 2007).

How the values were obtained:
[1] = target: Cyclin-dependent kinase 2/cyclin A (Homo sapiens, UniProt P24941); assay: Inhibition of CDK2/Cyclin A; format: protein-complex assay
[2] = system: MCF7; assay: Antiproliferative activity against MCF7 cells; format: functional, cell-based; conditions: Homo sapiens
[3] = Antiproliferative activity against ID8 cells; format: functional, cell-based; conditions: Mus musculus

Structure (SMILES) | IC50 [1] | IC50 [2] | IC50 [3]
CC(C)(C)OC(=O)N[C@@H](Cc1ccccc1)C(=O)Nc1ccc(O)c2c(=O)cc(-c3ccccc3Cl)oc12 | 417 µM | 7.1 µM | 5.3 µM
O=C(Nc1ccc(O)c2c(=O)cc(-c3ccccc3Cl)oc12)c1ccc(Cl)cc1 | 417 µM | 4.6 µM | 5.5 µM
CSCC[C@@H](NC(=O)OC(C)(C)C)C(=O)Nc1ccc(O)c2c(=O)cc(-c3ccccc3Cl)oc12 |  | 2.8 µM | 13 µM
Cc1ccc(C(=O)Nc2c(O)cc(O)c3c(=O)cc(-c4ccccc4Cl)oc23)cc1 | 90 µM | 9.7 µM | 
O=C(Nc1c(O)cc(O)c2c(=O)cc(-c3ccccc3Cl)oc12)c1ccccc1 | 91 µM | 8.5 µM | 
O=C(Nc1c(O)cc(O)c2c(=O)cc(-c3ccccc3Cl)oc12)c1ccc(Cl)cc1 | 339 µM | 13 µM | 
CC(C)(C)OC(=O)N[C@H](Cc1ccccc1)C(=O)Nc1ccc(O)c2c(=O)cc(-c3ccccc3Cl)oc12 | 417 µM | 4.5 µM | 12 µM
C[C@H](NC(=O)OC(C)(C)C)C(=O)Nc1ccc(O)c2c(=O)cc(-c3ccccc3Cl)oc12 | 417 µM | 5.5 µM | 9.8 µM
CSCC[C@H](NC(=O)OC(C)(C)C)C(=O)Nc1ccc(O)c2c(=O)cc(-c3ccccc3Cl)oc12 |  | 20 µM | 6.2 µM
Cc1ccc(C(=O)Nc2ccc(O)c3c(=O)cc(-c4ccccc4Cl)oc23)cc1 |  | 10 µM | 16 µM
COc1ccc(C(=O)Nc2c(O)cc(O)c3c(=O)cc(-c4ccccc4Cl)oc23)cc1 | 54 µM | 13 µM | 
CC(C)C[C@@H](NC(=O)OC(C)(C)C)C(=O)Nc1ccc(O)c2c(=O)cc(-c3ccccc3Cl)oc12 | 417 µM |  | 17 µM
CCC(C)OC(=O)Nc1ccc(O)c2c(=O)cc(-c3ccccc3Cl)oc12 (stereo not given) | 417 µM | 30 µM | 18 µM
C[C@@H](NC(=O)OC(C)(C)C)C(=O)Nc1ccc(O)c2c(=O)cc(-c3ccccc3Cl)oc12 |  | 5.5 µM | 104 µM
O=c1cc(-c2ccccc2Cl)oc2c(N3CCOCC3)ccc(O)c12 | 417 µM | 20 µM | 7.9 µM
O=C(Nc1ccc(O)c2c(=O)cc(-c3ccccc3Cl)oc12)c1ccc(Cl)c(Cl)c1 | 217 µM | 15 µM | 13 µM
COc1ccc(C(=O)Nc2ccc(O)c3c(=O)cc(-c4ccccc4Cl)oc23)cc1 | 383 µM | 3.5 µM | 5 µM
O=C(Nc1ccc(O)c2c(=O)cc(-c3ccccc3Cl)oc12)c1ccccc1 | 417 µM | 7.1 µM | 13 µM
CC(C)C[C@H](NC(=O)OC(C)(C)C)C(=O)Nc1ccc(O)c2c(=O)cc(-c3ccccc3Cl)oc12 | 417 µM | 4 µM | 5.1 µM
CN1CC[C@H](c2c(O)cc(O)c3c(=O)cc(-c4ccccc4Cl)oc23)[C@H](O)C1 [ALVOCIDIB] |  | 0.026 µM | 0.007 µM
